The target in one data set is T1, beta-amyloid 42 (Aβ42) (Homo sapiens, UniProt P05067).
T1 construct: Beta-amyloid 42 (Aβ42) was dissolved in dimethylsulfoxide (DMSO)
Put plainly: Inhibitory effect on the formation of beta-amyloid fibrils in vitro (ThT fluorescence assay). Particulars: for IC50: In vitro ThT analysis (Aβ42: 25 μM), experiment of Table 1; for % inhibition against the beta-amyloid 42 formation compared with curcumin: Tables 1 to 6, relative to curcumin. It is filed as biochemical. The procedure: In order to investigate the inhibitory effect on the formation of beta-amyloid fibrils, the inventive compounds were examined as follows:
Beta-amyloid 42 (Aβ42) was dissolved in dimethylsulfoxide (DMSO) to form a […] Aβ42 stock solution. In addition, ThT (thioflavin T) was dissolved in distilled water to a concentration of 1 mM and subsequently diluted with 50 mM glycin buffer (pH 8.5) to yield a 5 μM ThT stock solution.
45 μL of PBS (phosphate buffer saline, pH 7.4) was added to each of a 96 well fluorescence microplate (white, F-bottom). 5 μL of the 250 μM Aβ42 stock solution was added to each well. The final concentration of each compound obtained in Examples was in a range of 10 to 0.001 μM by adding 2 μL of a solution, which is prepared by dissolving the subject compounds obtained in Examples in DMSO, to each well. At this time, the final concentration of Aβ42 in each well was 25 μM. The plate was then incubated at room temperature for 1 hr, and 150 μL of the 5 μM ThT stock solution was added to each well.
The fluorescence intensity of each well was determined with the multi label fluorescence counter (LS-55 Luminescence spectrometer, Perkin Elmer) at an excitation wavelength of 450 nm (excitation slit width: 10 nm) and an emission wavelength of 482 nm (emission slit width: 10 nm), while adjusting counting time to 1 second. The control group was prepared by adding PBS solution, Aβ42 and DMSO, without adding the inventive compound. % Inhibition on the formation of beta-amyloid fibrils was calculated in accordance with the following equation and IC5O was calculated by using GraphPad Prism version 4.03 Program.
% Inhibition=[1−(C−D)/(A−B)]×100 Equation 1%
A (control group): fluorescence intensity in a group treated with PBS solution, Aβ42, and DMSO
B (blank): fluorescence intensity in a group treated with PBS solution and DMSO
C (experimental group): fluorescence intensity in a group treated with PBS solution, Aβ42, DMSO, and the inventive compound
D (compensation value to the experimental group): fluorescence intensity in a group treated with PBS solution, DMSO, and the inventive compound

The test system of data set [1] is congo red-positive beta-amyloid plagues. Kind of data set: Immunohistochemistry: congo red-positive beta-amyloid plaque count in hippocampus and cortex of transgenic mice. Particulars: vs Tg group. The data set is classed as in vivo. The procedure:
The transgenic mice were screened and drug was administered thereto as described in 1) and 2) of Experimental Example 4. The brain was separated from the transgenic mouse and fixed in 10% neutral formalin solution. A region of the brain including the hippocampus and the cortex were subjected to removal, washing, dehydration and paraffin infiltration to obtain paraffin block including the brain tissue. The paraffin block was subjected to thin section in thickness of 8 μm to obtain the sections of all regions of hippocampus. Among them, 10 sections were elected at regular intervals. They were deparaffinized, hydrated, immersed in Mayer's hematoxylin for 1 min and rinsed with tap water. The rinsed tissue was reacted in an alkaline sodium chloride solution for 20 min, after then was reacted in an alkaline congo red solution for 20 min. The resulting tissue was washed with 100% ethyl alcohol, cleared with xylene and mounted using a synthetic mounting medium. In the hippocampus and cortex regions of the tissue preparations strained with congo red, congo red-positive beta-amyloid plagues were counted.

Data set [2] deals with transgenic double tg mice (APPswe, PSEN1 dE9). Put plainly: In vivo fear conditioning test in transgenic mice. Particulars: 5 to 12 months of age, based on the freezing (%) of Tg vehicle group. The procedure:
The tails of 3-week old mice born from Male B6C3-Tg (APPswe, PSEN1 dE9, Jackson Laboratory Co., Maine, A) and female B6C3F1 (central Lab. Animal Inc., Korea) were cut in lengths of about 0.5 cm (tail biopsy). The genomic DNAs were extracted from the tail samples and subjected to a genotype analysis to screen transgenic double tg mice.
From 5 months to 12 months after the birth, the mice were administered orally with the compound of Example 9, in an amount of 30 mg/kg or 100 mg/kg every day. As a comparative compound, tramiprosate (Aisen, P. S. et. al., Curr. Alzheimer Res. 2007, 4, 473) was used, which binds to beta-amyloid protein to inhibit the deposition and cytotoxicity to the protein. The compounds were administrated.
3) Fear Conditioning Test
At the First day of training, the mice were placed in a conditioning box and adjusted for 2 min. The fear conditioning was performed with a conditional stimulus (CS) of 75 dB for 20 sec, together with an electrical stimulus (unconditional stimulus (US)) of 0.5 mA for final 2 sec in the conditional stimulus period. After 1 min, the animals were transferred to a cage. After 24 hrs, the retention test was performed. The animals were placed in the same conditioning box as used above and observed for 5 min. The freezing response was measured without CS and US. The freezing response is defined in the state of the animals keeping still except for breathing.

The target in a further data set is beta-amyloid 42 (Homo sapiens, UniProt P05067). Kind of data set: Biochemical test: content of beta-amyloid 42 in hippocampus tissue of transgenic mice. It is filed as in vivo. Particulars: hippocampus tissue, based on the content of beta amyloid 42 in the Tg group.

These results are taken from patent publication US20110124888A1, “STYRYLBENZOFURAN DERIVATIVES AS INHIBITORS FOR BETA-AMYLOID FIBRIL FORMATION AND PREPARATION METHOD THEREOF” (Korea Institute of Science and Technology, priority 2008, published 2011).

T1 sequence (P05067 672-713 limits assumed): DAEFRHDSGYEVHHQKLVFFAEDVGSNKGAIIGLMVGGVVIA
beta-amyloid 42, sequence (P05067 672-713 limits assumed): as above

The IC50 is the point on the concentration scale where inhibition reaches its midpoint. What is called melting point is the temperature of the solid-liquid transition. `COc1ccc2oc(C=Cc3ccc(N(C)C)c(OC)c3)cc2c1` [Compound 22, 5-methoxy-2-(3-methoxy-4-dimethylaminostyryl)benzofuran] had a melting point of 226.5 to 227.5 °C. At beta-amyloid 42 (Aβ42), the midpoint of inhibition, the IC50, lay at 156 nM and the “% inhibition against the beta-amyloid 42 formation compared with curcumin” value (“% inhibition” below) was “superior % inhibition”.

The compound `CN(C)c1ccc(C=Cc2cc3cc(O)ccc3o2)cc1` [Compound 3, 5-Hydroxy-2-(4-dimethylaminostyryl)benzofuran] came in with a melting point of 177 to 178 °C. Also, at beta-amyloid 42 (Aβ42), the IC50 worked out at 163 nM and the “% inhibition” value is “superior % inhibition”.

Turning to `Cc1ccc2oc(C=Cc3ccc(N(C)C)cc3)cc2c1` [Compound 4, 5-methyl-2-(4-dimethylaminostyryl)benzofuran], the melting point fell in the range of 188 to 189 °C. Further, on beta-amyloid 42 (Aβ42), it took 128 nM to reach half-maximal inhibition (IC50) and the “% inhibition” value is “superior % inhibition”.

For `NCCCS(=O)(=O)O` [Tramiprosate, tramiprosate, reference compound], the “Reduction rate (%) of beta-amyloid plaques, cortex” value in data set [1] (30 mg/kg) was 32%; in data set [1] (100 mg/kg), 12%. The “Reduction rate (%) of beta-amyloid plaques, hippocampus” value in data set [1] (30 mg/kg) and in data set [1] (100 mg/kg) was 7% each time. The results for the “Total reduction rate (%) of beta-amyloid plaques” value in data set [1] (30 mg/kg) and in data set [1] (100 mg/kg) were 29% and 11%, respectively. For the same compound, the “Increase rate (fold) of freezing” value in data set [2] (30 mg/kg orally every day) is reported as 2.3 fold; in data set [2] (100 mg/kg orally every day), 1.8 fold. In addition, the “Reduction rate (%) of beta amyloid 42 content” value at beta-amyloid 42 (30 mg/kg) turned out to be 8%; on beta-amyloid 42 (100 mg/kg), 16%.
